Entries after “also recorded” stand apart in the source; their conditions may differ.
What was measured:
[1] = tested on: mechanical allodynia of the neuropathic (“Cuff”) mice; settings: as previously published (Benbouzid et al. 2008); cited from earlier work
[2] = tested on: nociceptive sensitivity of the mice of the control (“Sham”) group; test: von Frey filament test in control (Sham) mice operated without cuff; type: in vivo, C57BL/6J mice; settings: for Sensitivity of control (Sham) animals under chronic treatment, recapitulation (FIG. 26): chronic treatment (14-21 days), doses and modes as in examples 2, 7, 9 to 14 and 20 (formoterol 0.5 mg/kg, terbutalin 5 mg/kg); for Nociceptive sensitivity of control (Sham) mice under chronic treatment: repeated injections, doses and modes as for the Cuff mice of the same example; for Sensitivity of control (Sham) animals, dose-response recapitulation (FIG. 21): terbutalin 0.125, 0.25, 0.5 or 5 mg/kg, nortriptylin 5 mg/kg, twice a day, 3 weeks
Description: (§1) The experiments were carried out on adult male mice. The pharmacological experiments were carried out using C57BL/6J mice (3-to-6 weeks old on their arrival, Charles River, L'Arbresle, France).
(§2) The model is obtained by placing a polyethylene cuff around the main branch of the right sciatic nerve of each mouse. Before any surgical procedure, the mice were assigned to the various experimental groups in such a way that the baseline mechanical nociception threshold and the weight are equivalent between the various groups. The surgical procedure was carried out under ketamin-xylazin anesthesia (ketamin: 17 mg/ml, xylazin 2.5 mg/ml, intraperitoneal injection in a proportion of 4 ml/kg) (limited liability company Centravet, Taden, France). The common branch of the sciatic nerve was exposed and a section 2 mm long of a hollow PE-20 polyethylene tube (“Harvard Apparatus”, Les Ulis, France) was placed around said branch (“Cuff” group). […] Control mice were operated on according to the same procedure, but without placing the cuff (“Sham” group). The experimental groups are made up of at least 4 mice for each control (“Sham”) group and at least 5 mice for each neuropathic (“Cuff”) group.
(§3) The mice are placed in transparent Plexiglas (registered trademark) boxes (7 cm×9 cm×7 cm) placed on a raised grid. Before the test, the mice are allowed to become accustomed to this device for 15 minutes. During the test, the von Frey filaments are applied to the plantar surface of each back foot according to ascending forces (from 0.16 g up to a foot withdrawal response, or up to a maximum of 10 g). Each filament is tested 5 times per foot and the threshold is defined by the presence of 3 or more withdrawals observed over the 5 tests. Before the surgery as described above, the animals were pretested in order to establish their baseline nociceptive response. During the chronic treatment experiments and those of repeated injection of antagonists, the tests are carried out in the mornings before the first injection of the day. During the acute agonist injection experiments, the tests are carried out after the first injection according to the time course as presented on the graphs.
(§4) For all the treatments carried out by injection, said injections were given intraperitoneally in a volume of 50 microL per 10 mg of body weight.

[3] = tested on: mechanical allodynia of the neuropathic (“Cuff”) mice; test: Sciatic nerve cuff murine model of neuropathic pain, von Frey filament test in neuropathic (Cuff) mice; type: in vivo, C57BL/6J mice; settings: for Mechanical allodynia of Cuff mice after the first (acute) injection: intraperitoneal, mice neuropathic for 2 weeks; for Allodynia in neuropathic (Cuff) animals after chronic treatment, recapitulation (FIG. 25): chronic treatment (14-21 days), doses and modes as in examples 7, 9 to 14 and 20 (formoterol 0.5 mg/kg, terbutalin 5 mg/kg); for Effect on neuropathic allodynia acutely after the first injection, summary statement: first injection of the agonist, doses as in examples 7, 9, 11 and 15; for Mechanical allodynia in neuropathic (Cuff) mice after chronic treatment by inhalation: twice a day
Description: as §1
All the experiments began with mice that were 6-to-9 weeks old. […] For all the other experiments, the mice were combined at four to five per cage and kept under alternating 12-hour day/night (light at 6 am) with food and water ad libitum.
as §2, §3
The surgery for installing the cuff corresponds to day 0.
as §4

[4] = tested on: mechanical allodynia of the neuropathic (“Cuff”) mice; test: Cotreatment with adrenoreceptor antagonists in Cuff mice relieved by chronic nortriptylin or beta-agonist treatment, von Frey test; type: in vivo, C57BL/6J mice; settings: for Effect of coadministered beta2-adrenoreceptor antagonist ICI 118,551 on the allodynia of agonist-treated Cuff mice: ICI 118,551 2 mg/kg intraperitoneal, after 3 weeks of agonist treatment (doses as in chronic treatment; terbutalin 0.5 mg/kg), 3 to 6 days of cotreatment; for Effect of ICI 118,551 on the therapeutic effect of chronic agonist treatment on neuropathic allodynia, summary statement: chronic treatment with the agonist plus beta2-adrenoreceptor antagonist ICI 118,551
Description: as §2
For the tests, in the examples which follow, the pressure is exerted on the foot of the mice by means of von Frey filaments (Bioseb, Chaville, France) (Benbouzid, M. et al. Biological Psychiatry 63:633-636 (2008) (10) and Benbouzid, M. et al. European Journal of Pain 12:591-599 (2008) (11)). The mice are placed in transparent Plexiglas (registered trademark) boxes (7 cm×9 cm×7 cm) placed on a raised grid. Before the test, the mice are allowed to become accustomed to this device for 15 minutes. During the test, the von Frey filaments are applied to the plantar surface of each back foot according to ascending forces (from 0.16 g up to a foot withdrawal response, or up to a maximum of 10 g). Each filament is tested 5 times per foot and the threshold is defined by the presence of 3 or more withdrawals observed over the 5 tests. Before the surgery as described above, the animals were pretested in order to establish their baseline nociceptive response. During the chronic treatment experiments and those of repeated injection of antagonists, the tests are carried out in the mornings before the first injection of the day. During the acute agonist injection experiments, the tests are carried out after the first injection according to the time course as presented on the graphs.
The procedure for intrathecal (i.t.) injection of the beta2-adrenoreceptor antagonist ICI 118,551 (3 μg in 10 μl) is carried out under halothane gas anesthesia according to the protocol described by Inoue et al. (Nature Medicine 2004, 10:712-718 (12)). These i.t. injections are carried out just before the intraperitoneal injection of salbutamol (2 mg/kg, i.p.). A 27-gauge injection needle connected to a 50 μl Hamilton syringe is inserted, between the L5 and L6 vertebrae, into the subarachnoid space. The correct placement of the needle is verified by the presence of a reflex movement of the tail of the mouse. The mice are pretested before this cotreatment procedure, and then cotreated twice (a morning and the corresponding evening) before being retested the following morning for their mechanical nociceptive sensitivity.

[5] = 5 mg/kg, injection twice a day (morning and evening), chronic
[6] = 0.5 mg/kg, injection twice a day, chronic

Row | SMILES | Sensitivity of the neuropathic mouse model to chronic treatment with a tricyclic antidepressant [1] | Sensitivity of control (Sham) animals under chronic treatment, recapitulation (FIG. 26) [2] | Nociceptive sensitivity of control (Sham) mice under chronic treatment [2] | Sensitivity of control (Sham) animals, dose-response recapitulation (FIG. 21) [2] | Mechanical allodynia in neuropathic (Cuff) mice after chronic treatment [3, 5] | Allodynia in neuropathic (Cuff) animals after chronic treatment, recapitulation (FIG. 25) [3] | Effect on neuropathic allodynia acutely after the first injection, summary statement [3] | Effect of coadministered beta2-adrenoreceptor antagonist ICI 118,551 on the allodynia of agonist-treated Cuff mice [4] | Effect of ICI 118,551 on the therapeutic effect of chronic agonist treatment on neuropathic allodynia, summary statement [4] | other results
1 | CN(C)CCC=C1c2ccccc2CCc2ccccc21 [amitriptylin] | sensitive to chronic treatment |  |  |  |  |  |  |  |  | 
2 | CNCCC=C1c2ccccc2CCc2ccccc21 [nortriptylin] | sensitive to chronic treatment | does not impair the sensitivity of control animals | not affected | does not impair the sensitivity of control animals | ineffective initially, but subsequently causes the allodynia to completely disappear |  |  |  |  | 
3 | CC(C)(C)NCC(O)c1ccc(O)c(CO)c1 (stereo not drawn) [salbutamol] |  | do not affect the control animals; also recorded: does not aspecifically affect the sensitivity of the control animals | not affected |  |  | relieve this allodynia; also recorded: causes the neuropathic pain, for example the neuropathic allodynia, to completely disappear | not observed acutely after the first injection | causes the allodynia to reappear | blocks the therapeutic effect | Mechanical allodynia in neuropathic (Cuff) mice after chronic treatment ([3]; 2 mg/kg, injection twice a day, chronic): relieves the mechanical allodynia; Mechanical allodynia of Cuff mice after the first (acute) injection ([3]; 2 mg/kg): has no effect on the mechanical allodynia; Mechanical allodynia in neuropathic (Cuff) mice after chronic treatment by inhalation ([3]; salbutamol sulfate inhaler (Ventolin), 100 μg per session for 2 weeks, then inhaler pressed 3 times per session for 9 days): relieves the mechanical allodynia; also recorded: relieves neuropathic allodynia; Effect of intrathecal beta2-adrenoreceptor antagonist ICI 118,551 on the allodynia of agonist-treated Cuff mice ([4]; ICI 118,551 3 μg in 10 μl intrathecal before each of 2 injections of salbutamol 2 mg/kg i.p., after at least 3 weeks of salbutamol): causes the allodynia to reappear; also recorded: blocks the therapeutic effect
4 | OCc1cc(C(O)CNCCCCCCOCCCCc2ccccc2)ccc1O (stereo not drawn) [salmeterol] |  | do not affect the control animals; also recorded: does not aspecifically affect the sensitivity of the control animals | not affected |  |  | relieve this allodynia; also recorded: causes the neuropathic pain, for example the neuropathic allodynia, to completely disappear | not observed acutely after the first injection | causes the allodynia to reappear | blocks the therapeutic effect | Mechanical allodynia in neuropathic (Cuff) mice after chronic treatment ([3]; 1 mg/kg, injection twice a day, chronic): completely suppresses the mechanical allodynia; Mechanical allodynia of Cuff mice after the first (acute) injection ([3]; 1 mg/kg): has no effect on the mechanical allodynia; Mechanical allodynia in neuropathic (Cuff) mice after chronic treatment by inhalation ([3]; salmeterol xinafoate inhaler (Serevent), 50 μg per session for 2 weeks, then inhaler pressed four times per session for 9 days): relieves the mechanical allodynia; also recorded: relieves neuropathic allodynia
5 | CC(C)(C)NCC(O)c1cc(O)cc(O)c1 (stereo not drawn) [terbutalin] |  | do not affect the control animals; also recorded: does not aspecifically affect the sensitivity of the control animals | not affected | do not affect | completely suppresses the mechanical allodynia | relieve this allodynia; also recorded: causes the neuropathic pain, for example the neuropathic allodynia, to completely disappear | not observed acutely after the first injection | causes the allodynia to reappear | blocks the therapeutic effect | Mechanical allodynia of the right (neuropathic) foot after chronic treatment ([3]; 0.125 mg/kg, injection twice a day, chronic): completely suppress the mechanical allodynia; Mechanical allodynia of the right (neuropathic) foot after chronic treatment ([3]; 0.25 mg/kg, injection twice a day, chronic): completely suppress the mechanical allodynia; Mechanical allodynia in neuropathic (Cuff) mice after chronic treatment [3, 6]: completely suppresses the mechanical allodynia; Response of the non-neuropathic left foot (foot without surgery) of Cuff mice [3, 6]: without aspecifically affecting the response; Mechanical allodynia of Cuff mice after the first (acute) injection ([3]; 5 mg/kg): has no effect on the mechanical allodynia; Mechanical allodynia in neuropathic (Cuff) mice after chronic application of a gel to the skin ([3]; 0.1 ml of gel twice a day, 2.5 mg/ml terbutalin hemisulfate in 5% hydroxyethylcellulose gel, from 8 days after surgery): relieves the mechanical allodynia; also recorded: relieves neuropathic allodynia; Mechanical sensitivity of the non-neuropathic left foot of Cuff mice (FIG. 21) ([3]; 0.125, 0.25, 0.5 or 5 mg/kg twice a day, chronic (3 weeks)): without affecting the mechanical sensitivity; Allodynia of the neuropathic right foot, dose-response recapitulation (FIG. 21) ([3]; 0.125, 0.25, 0.5 or 5 mg/kg twice a day, chronic (3 weeks), averaged over third week): suppresses the allodynia; Mechanical allodynia in neuropathic (Cuff) mice with subcutaneous implant (continuous delivery) ([3]; silicone tube implant containing 10 mg terbutalin hemisulfate, inserted 14 days after surgery): relieves the mechanical allodynia; also recorded: relieves neuropathic allodynia
